Test results taken from PubChem BioAssay (NCI).
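All cell lines were grown in 96-well plates and treated with compound for 48 hours. TGI is the concentration that stops growth completely.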

How the values were obtained:
Assay in all cases: inhibition of tumour cell growth, NCI panel, 48 h
T-47D breast = system: T-47D breast
UACC-62 melanoma = system: UACC-62 melanoma
SNB-75 CNS = system: SNB-75 CNS
OVCAR-5 ovarian = system: OVCAR-5 ovarian
HS 578T breast = system: HS 578T breast
HT29 colon = system: HT29 colon
A549 NSCLC = system: A549 NSCLC
HCT-116 colon = system: HCT-116 colon
MDA-MB-435 = system: MDA-MB-435
DU-145 prostate = system: DU-145 prostate
SN12C renal = system: SN12C renal
ACHN renal = system: ACHN renal
RXF 393 renal = system: RXF 393 renal
OVCAR-8 ovarian = system: OVCAR-8 ovarian
SK-MEL-28 melanoma = system: SK-MEL-28 melanoma
LOX IMVI melanoma = system: LOX IMVI melanoma
COLO 205 colon = system: COLO 205 colon
HCT-15 colon = system: HCT-15 colon
SR leukemia = system: SR leukemia
NCI-H226 lung = system: NCI-H226 lung
SF-268 CNS = system: SF-268 CNS
UACC-257 melanoma = system: UACC-257 melanoma
HCC-2998 colon = system: HCC-2998 colon
U251 CNS = system: U251 CNS
CAKI-1 renal = system: CAKI-1 renal
MDA-MB-231 breast = system: MDA-MB-231 breast
SK-MEL-5 melanoma = system: SK-MEL-5 melanoma
SW-620 colon = system: SW-620 colon
NCI-H23 lung = system: NCI-H23 lung
M14 melanoma = system: M14 melanoma
HL-60(TB) leukemia = system: HL-60(TB) leukemia
SF-295 CNS = system: SF-295 CNS
NCI-H460 lung = system: NCI-H460 lung
CCRF-CEM leukemia = system: CCRF-CEM leukemia
K-562 leukemia = system: K-562 leukemia
SK-MEL-2 melanoma = system: SK-MEL-2 melanoma
A498 renal = system: A498 renal
PC-3 prostate = system: PC-3 prostate
KM12 colon = system: KM12 colon
MALME-3M melanoma = system: MALME-3M melanoma
MDA-N = system: MDA-N
IGROV1 ovarian = system: IGROV1 ovarian
BT-549 breast = system: BT-549 breast
NCI-H522 lung = system: NCI-H522 lung
RPMI-8226 leukemia = system: RPMI-8226 leukemia
OVCAR-3 ovarian = system: OVCAR-3 ovarian
MOLT-4 leukemia = system: MOLT-4 leukemia
UO-31 renal = system: UO-31 renal
NCI/ADR-RES ovarian = system: NCI/ADR-RES ovarian
SF-539 CNS = system: SF-539 CNS
OVCAR-4 ovarian = system: OVCAR-4 ovarian
MCF7 breast = system: MCF7 breast
SNB-19 CNS = system: SNB-19 CNS
TK-10 renal = system: TK-10 renal
HOP-62 NSCLC = system: HOP-62 NSCLC
786-0 renal = system: 786-0 renal
HOP-92 NSCLC = system: HOP-92 NSCLC

CC(=O)C1=C(c2ccccc2)N(C2OC(CO)C(O)C(O)C2O)C(S)=C(C#N)C1c1ccc(Cl)cc1 (configuration not stated)
TGI (T-47D breast): 40.4 µM
TGI (UACC-62 melanoma): 30.8 µM
TGI (SNB-75 CNS): 78.8 µM
TGI (OVCAR-5 ovarian): > 100 µM
TGI (HS 578T breast): 78.5 µM
TGI (HT29 colon): > 100 µM
TGI (A549 NSCLC): > 100 µM
TGI (HCT-116 colon): 30.6 µM
TGI (MDA-MB-435): 51.2 µM
TGI (DU-145 prostate): > 100 µM
TGI (SN12C renal): > 100 µM
TGI (ACHN renal): > 100 µM
TGI (RXF 393 renal): 85.3 µM
TGI (OVCAR-8 ovarian): > 100 µM
TGI (SK-MEL-28 melanoma): 41.6 µM
TGI (LOX IMVI melanoma): 34.1 µM
TGI (COLO 205 colon): 40.6 µM
TGI (HCT-15 colon): > 100 µM
TGI (SR leukemia): > 100 µM
TGI (NCI-H226 lung): 58.8 µM
TGI (SF-268 CNS): 73.9 µM
TGI (UACC-257 melanoma): 49.4 µM
TGI (HCC-2998 colon): 34.3 µM
TGI (U251 CNS): 35.2 µM
TGI (CAKI-1 renal): 75 µM
TGI (MDA-MB-231 breast): 61.8 µM
TGI (SK-MEL-5 melanoma): 34.9 µM
TGI (SW-620 colon): 34.5 µM
TGI (NCI-H23 lung): > 100 µM
TGI (M14 melanoma): 46.7 µM
TGI (HL-60(TB) leukemia): > 100 µM
TGI (SF-295 CNS): 99.6 µM
TGI (NCI-H460 lung): 52.7 µM
TGI (CCRF-CEM leukemia): > 100 µM
TGI (K-562 leukemia): > 100 µM
TGI (SK-MEL-2 melanoma): 29.2 µM
TGI (A498 renal): > 100 µM
TGI (PC-3 prostate): 42.2 µM
TGI (KM12 colon): 42.1 µM
TGI (MALME-3M melanoma): 50.4 µM
TGI (MDA-N): 51.5 µM
TGI (IGROV1 ovarian): > 100 µM
TGI (BT-549 breast): 35.6 µM
TGI (NCI-H522 lung): 48.1 µM
TGI (RPMI-8226 leukemia): > 100 µM
TGI (OVCAR-3 ovarian): 37.2 µM
TGI (MOLT-4 leukemia): 35.3 µM
TGI (UO-31 renal): > 100 µM
TGI (NCI/ADR-RES ovarian): > 100 µM
TGI (SF-539 CNS): 50 µM
TGI (OVCAR-4 ovarian): > 100 µM
TGI (MCF7 breast): 42 µM
TGI (SNB-19 CNS): > 100 µM
TGI (TK-10 renal): > 100 µM
TGI (HOP-62 NSCLC): 59.9 µM
TGI (786-0 renal): 80.6 µM
TGI (HOP-92 NSCLC): 88.7 µM
